Data from patent US9351965B2, “Indazole derivatives useful as ERK inhibitors” (Merck Sharp & Dohme Corp., priority 2010, dated 2016).

Molecular target: fully phosphorylated, active Mouse ERK2 protein (Mus musculus (Mouse), UniProt P63085)
Assay: Active ERK2 (aERK) IMAP assay
Assay type: biochemical
Settings: IMAP fluorescence polarization; 30 μM ATP; 30 minute pre-incubation

Sequence of fully phosphorylated, active Mouse ERK2 protein (P63085 whole entry): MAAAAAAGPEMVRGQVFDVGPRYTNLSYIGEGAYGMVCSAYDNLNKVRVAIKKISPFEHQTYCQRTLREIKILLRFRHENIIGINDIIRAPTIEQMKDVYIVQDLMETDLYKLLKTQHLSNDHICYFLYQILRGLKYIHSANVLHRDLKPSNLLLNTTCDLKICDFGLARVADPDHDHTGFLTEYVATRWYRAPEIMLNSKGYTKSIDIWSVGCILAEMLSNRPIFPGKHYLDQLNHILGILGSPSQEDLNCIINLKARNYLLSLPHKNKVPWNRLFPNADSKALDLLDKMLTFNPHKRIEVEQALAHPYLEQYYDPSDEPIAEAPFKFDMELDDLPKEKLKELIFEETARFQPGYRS

IC50 [nM] | SMILES
1000 | Cc1cc(-c2n[nH]c3ccc(C(=O)N[C@@H]4CCCC(F)(Cc5ccccc5F)C4)cc23)ccn1 (single isomer, unassigned; isomer 1) [compound 55]
77.2 | O=C(NC1CCCC(Cn2cncn2)C1)c1ccc2[nH]nc(-c3ccc4nccn4c3)c2c1 (stereo not shown) [compound 111, 3-imidazo[1,2-a]pyridin-6-yl-N-[3-(1H-1,2,4-triazol-1-ylmethyl)cyclohexyl]-1H-indazole-5-carboxamide]
165 | Cc1cc(-c2n[nH]c3ccc(C(=O)N[C@@H]4CCC[C@@](O)(Cn5c(=O)ccc6ccccc65)C4)cc23)ccn1 (relative stereo) [compound 93, N-[cis-3-hydroxy-3-[(2-oxo-1(2h)-quinolinyl)methyl]cyclohex-yl]-3-(2-methyl-4-pyridinyl)-1H-indazole-5-carboxamide]
1000 | Cc1cc(-c2n[nH]c3ccc(C(=O)NC4CCCC(O)(Cc5c(F)cccc5F)C4)cc23)ccn1 (single isomer, unassigned) [compound 8, N-[3-[(2,6-difluorophenyl)methyl]-3-hydroxycyclohexyl]-3-(2-methyl-4-pyridinyl)-1H-indazole-5-carboxamide]
31.3 | Cc1cc(-c2n[nH]c3ccc(C(=O)NN4CCCC(Oc5ccccc5Cl)C4)cc23)ccn1 (stereo not shown) [compound 140, N-[3-(2-chlorophenoxy)-1-piperidinyl]-3-(2-methyl-4-pyridinyl)-1H-indazole-5-carboxamide]
20.9 | Cc1nc2ccc(-c3n[nH]c4ccc(C(=O)N[C@@H]5CCC[C@](O)(Cc6c(F)cccc6F)C5)cc34)cn2n1 [compound 21, N-[3-(S)-[(2,6-difluorophenyl)methyl]-3-hydroxy-1(R)-cyclohexyl]-3-(2-methyl[1,2,4]triazolo[1,5-a]pyridin-6-yl)-1H-indazole-5-carboxamide]
1000 | Cc1cc(-c2n[nH]c3ccc(C(=O)N[C@H]4CCC[C@@](O)(Cn5ncc6cc(F)ccc65)C4)cc23)ccn1 (relative stereo) [compound 98, N-[trans-3-[(5-fluoro-1H-indazol-1-yl)methyl]-3-hydroxycyclohexyl]-3-(2-methyl-4-pyridinyl)-1H-indazole-5-carboxamide]
60.8 | Cc1cc(-c2n[nH]c3ccc(C(=O)NC4CCCC(Cn5cnc6cccnc65)C4)cc23)ccn1 (stereo not shown) [compound 118, N-[3-(3H-imidazo[4,5-b]pyridin-3-ylmethyl)cyclohexyl]-3-(2-methyl-4-pyridinyl)-1H-indazole-5-carboxamide]
537 | Cc1cc(-c2n[nH]c3ccc(C(=O)N[C@@H]4CCC[C@](O)(Cn5cnc6cccnc65)C4)cc23)ccn1 (relative stereo) [compound 72, N-[trans-3-hydroxy-3-(3H-imidazo[4,5-b]pyridin-3-ylmethyl)cyclohexyl]-3-(2-methyl-4-pyridinyl)-1H-indazole-5-carboxamide]
497 | CC(C)Oc1ccc(-c2n[nH]c3ccc(C(=O)NN4CCCC4CCc4ccccc4)cc23)cn1 (stereo not shown) [compound 144, 3-[6-(1-methylethoxy)-3-pyridinyl]-N-[2-(2-phenylethyl)-1-pyrrolidinyl]-1H-indazole-5-carboxamide]
1000 | Cc1cc(-c2n[nH]c3ccc(C(=O)N[C@@H]4CCC[C@](O)(Cn5ncccc5=O)C4)cc23)ccn1 (relative stereo) [compound 83, N-[trans-3-hydroxy-3-[(6-oxo-1(6h)-pyridazinyl)methyl]cyclohex-yl]-3-(2-methyl-4-pyridinyl)-1H-indazole-5-carboxamide]
64.4 | Cc1cc(-c2n[nH]c3ccc(C(=O)NC4CCC(CO)(Cc5ccccc5F)C4)cc23)ccn1 (stereo not shown) [compound 139, N-[3-[(2-fluorophenyl)methyl]-3-(hydroxymethyl)cyclopentyl]-3-(2-methyl-4-pyridinyl)-1H-indazole-5-carboxamide]
27.4 | Cc1cc(-c2n[nH]c3ccc(C(=O)N[C@@H]4CCC[C@](O)(Cn5cc6ccccc6n5)C4)cc23)ccn1 (relative stereo) [compound 90, N-[trans-3-hydroxy-3-(2H-indazol-2-ylmethyl)cyclohexyl]-3-(2-methyl-4-pyridinyl)-1H-indazole-5-carboxamide]
19.2 | Cc1cc(-c2n[nH]c3ccc(C(=O)NC4CCC(CO)(Cc5ccccc5F)C4)cc23)ccn1 (stereo not shown) [compound 138, N-[3-[(2-fluorophenyl)methyl]-3-(hydroxymethyl)cyclopentyl]-3-(2-methyl-4-pyridinyl)-1H-indazole-5-carboxamide]
264 | O=C(NC1CCCC(O)(Cc2ccccc2F)C1)c1ccc2[nH]nc(-c3ccc4ncsc4c3)c2c1 (single isomer, unassigned) [compound 11, 3-(6-benzothiazolyl)-N-[3-[(2-fluorophenyl)methyl]-3-hydroxycyclohexyl]-1H-indazole-5-carboxamide]
1000 | Cc1cc(-c2n[nH]c3ccc(C(=O)N[C@@H]4CCC[C@@](O)(Cn5c(C)nc6cnccc65)C4)cc23)ccn1 (relative stereo) [compound 77, N-[cis-3-hydroxy-3-[(2-methyl-1H-imidazo[4,5-c]pyridiN-1-yl)methyl]cyclohexyl]-3-(2-methyl-4-pyridinyl)-1H-indazole-5-carboxamide]
530 | Cc1cc(-c2n[nH]c3ccc(C(=O)NC4CCCC(Cn5ncc6cnccc65)C4)cc23)ccn1 (stereo not shown) [compound 119, 3-(2-methyl-4-pyridinyl)-N-[3-(1H-pyrazolo[4,3-c]pyridin-1-ylmethyl)cyclohexyl]-1H-indazole-5-carboxamide]
56.6 | Cc1cc(-c2n[nH]c3ccc(C(=O)NC4CCCC(Cn5ncc6cccc(F)c65)C4)cc23)ccn1 (mixture of isomers) [compound 126, N-[cis/trans-3-[(7-fluoro-1H-indazol-1-yl)methyl]cyclohexyl]-3-(2-methyl-4-pyridinyl)-1H-indazole-5-carboxamide]
436 | Cc1cc(-c2n[nH]c3ccc(C(=O)N[C@@H]4CCC[C@](O)(Cn5c(C(F)(F)F)nc6ccccc65)C4)cc23)ccn1 (relative stereo) [compound 67, N-[trans-3-hydroxy-3-[[2-(trifluoromethyl)-1H-benzimidazol-1-yl]methyl]cyclohexyl]-3-(2-methyl-4-pyridinyl)-1H-indazole-5-carboxamide]
294 | Cc1cc(-c2n[nH]c3ccc(C(=O)NC4CCCC(O)(C(O)c5ccccc5)C4)cc23)ccn1 (stereo not shown) [compound 52, N-[3-hydroxy-3-(hydroxyphenylmethyl)cyclohex-yl]-3-(2-methyl-4-pyridinyl)-1H-indazole-5-carboxamide (diasterimer 4)]
47.5 | Cc1cc(-c2n[nH]c3ccc(C(=O)NC4CCCC(O)(C(O)c5ccccc5)C4)cc23)ccn1 (stereo not shown) [compound 50, N-[3-hydroxy-3-(hydroxyphenylmethyl)cyclohex-yl]-3-(2-methyl-4-pyridinyl)-1H-indazole-5-carboxamide (diasterimer 2)]
97.6 | Cc1cc(-c2n[nH]c3ccc(C(=O)N[C@@H]4CCC[C@@](O)(Cn5cnc6cccnc65)C4)cc23)ccn1 (relative stereo) [compound 82, N-[cis-3-hydroxy-3-(3H-imidazo[4,5-b]pyridin-3-ylmethyl)cyclohexyl]-3-(2-methyl-4-pyridinyl)-1H-indazole-5-carboxamide]
15.2 | Cc1cc(-c2n[nH]c3ccc(C(=O)NC4CCCC(O)(Cc5c(F)cccc5F)C4)cc23)ccn1 (single isomer, unassigned) [compound 7, N-[3-[(2,6-difluorophenyl)methyl]-3-hydroxycyclohexyl]-3-(2-methyl-4-pyridinyl)-1H-indazole-5-carboxamide]
74.6 | O=C(NC1CCCC(Cn2cccn2)C1)c1ccc2[nH]nc(-c3ccc4nccn4c3)c2c1 (stereo not shown) [compound 110, 3-imidazo[1,2-a]pyridin-6-yl-N-[3-(1H-pyrazol-1-ylmethyl)cyclohexyl]-1H-indazole-5-carboxamide]
258 | Cc1cc(-c2n[nH]c3ccc(C(=O)NC4CCCC(O)(C(=O)c5ccccc5)C4)cc23)ccn1 (stereo not shown) [compound 53, N-(3-benzoyl-3-hydroxycyclohexyl)-3-(2-methyl-4-pyridinyl)-1H-indazole-5-carboxamide]
